Measurements: ChEMBL document CHEMBL1201862, “PubChem BioAssay data set” (2004)
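How tested: cells in 96-well plates exposed to compound for 48 hours at five concentrations. GI50 is the concentration that inhibits growth by half.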 Calls of active or inactive are those of the source. Rule as the data show it: active = GI50 up to about 1.1 µM and inactive = higher.

How the values were obtained:
Experiment in all cases: NCI-60 cell line screen, 48 h
786-0 = test system: 786-0
ACHN = test system: ACHN
CCRF-CEM = test system: CCRF-CEM
COLO 205 = test system: COLO 205
EKVX = test system: EKVX
HOP-62 = test system: HOP-62
HT-29 = test system: HT-29
IGROV-1 = test system: IGROV-1
Malme-3M = test system: Malme-3M
NCI-H460 = test system: NCI-H460
NCI/ADR-RES = test system: NCI/ADR-RES
OVCAR-5 = test system: OVCAR-5
PC-3 = test system: PC-3
SK-MEL-5 = test system: SK-MEL-5
SK-OV-3 = test system: SK-OV-3
SN12C = test system: SN12C
SR = test system: SR
UACC-257 = test system: UACC-257
UO-31 = test system: UO-31

SMILES	GI50 (786-0)	GI50 (ACHN)	GI50 (CCRF-CEM)	GI50 (COLO 205)	GI50 (EKVX)	GI50 (HOP-62)	GI50 (HT-29)	GI50 (IGROV-1)	GI50 (Malme-3M)	GI50 (NCI-H460)	GI50 (NCI/ADR-RES)	GI50 (OVCAR-5)	GI50 (PC-3)	GI50 (SK-MEL-5)	GI50 (SK-OV-3)	GI50 (SN12C)	GI50 (SR)	GI50 (UACC-257)	GI50 (UO-31)
COc1ccc(-c2c(=O)[nH]n3c(=S)[nH]c(-c4ccccc4)nc23)cc1OC	17.2 µM (inactive)	23.3 µM (inactive)	9.1 µM (inactive)	16.8 µM (inactive)	22.5 µM (inactive)	30 µM (inactive)	21.6 µM (inactive)	23.8 µM (inactive)	19.2 µM (inactive)	29 µM (inactive)	21.3 µM (inactive)	20.7 µM (inactive)	31.3 µM (inactive)	16.4 µM (inactive)	25.1 µM (inactive)	16.2 µM (inactive)	6.9 µM (inactive)	24 µM (inactive)	17 µM (inactive)
O=C1OC(C2OC(=O)c3cc(O)c(O)c(O)c3-c3c(O)c(O)c4oc(=O)c5c(c(O)c(O)c6oc(=O)c3c4c65)-c3c(cc(O)c(O)c3O)C(=O)OCC2O)C2OC(=O)c3c(c(O)c(O)c(O)c3[C@H]2O)-c2c1cc(O)c(O)c2O (stereo not given in full)	18.2 µM (inactive)	24.7 µM (inactive)	10.9 µM (inactive)	14.8 µM (inactive)	13 µM (inactive)	33.5 µM (inactive)	13.3 µM (inactive)	25.6 µM (inactive)	31.6 µM (inactive)	24.9 µM (inactive)	21.8 µM (inactive)	19.7 µM (inactive)	36.4 µM (inactive)	13.9 µM (inactive)	59.7 µM (inactive)	15.9 µM (inactive)	15 µM (inactive)	32 µM (inactive)	16.4 µM (inactive)
Cc1ccc(S(=O)(=O)N2CC(CCN)c3ccccc32)cc1 (stereo not given)	3.89 µM (inactive)	8.41 µM (inactive)	> 100 µM (inactive)	4.06 µM (inactive)	13 µM (inactive)	6.78 µM (inactive)	2.89 µM (inactive)	3.28 µM (inactive)	4 µM (inactive)	5.08 µM (inactive)	5.61 µM (inactive)	4.43 µM (inactive)	3.64 µM (inactive)	2.58 µM (inactive)	5.5 µM (inactive)	2.72 µM (inactive)	5.19 µM (inactive)	4.78 µM (inactive)	4.61 µM (inactive)
O=c1cc(N=P(c2ccccc2)(c2ccccc2)c2ccccc2)n(-c2ccccc2)c(=O)n1-c1ccccc1	6.3 µM (inactive)	4.33 µM (inactive)	8.63 µM (inactive)	6.56 µM (inactive)	10.4 µM (inactive)	6.52 µM (inactive)	15.9 µM (inactive)	17.9 µM (inactive)	11.8 µM (inactive)	4.15 µM (inactive)	21.8 µM (inactive)	23.2 µM (inactive)	3.94 µM (inactive)	10.3 µM (inactive)	22.2 µM (inactive)	11.1 µM (inactive)	4.28 µM (inactive)	23.8 µM (inactive)	4.92 µM (inactive)
CCC(O)CC1OC2(CCC1C)CC1OC(=O)/C=C\C(C)(O)C(O)C(C)C(O)C(OC3CC(OC)C(O)C(C)O3)C(O)C(C)(O)CCC/C=C/C3CC(C)COC3(O)CC(O2)C1C (stereo not given)	20.2 µM (inactive)	7.24 µM (inactive)	0.23 µM (active)	0.237 µM (active)	< 0.01 µM (active)	2.93 µM (inactive)	12 µM (inactive)	18.3 µM (inactive)	10.7 µM (inactive)	6.62 µM (inactive)	1.67 µM (inactive)	6.18 µM (inactive)	< 0.0251 µM (active)	< 0.01 µM (active)	26.6 µM (inactive)	15.7 µM (inactive)	19.9 µM (inactive)	< 0.01 µM (active)	11.2 µM (inactive)
N#Cc1c(N2CCCC2)nsc1Nc1ccc(F)cc1	> 100 µM (inactive)	> 100 µM (inactive)	> 100 µM (inactive)	> 100 µM (inactive)	19.7 µM (inactive)	> 100 µM (inactive)	> 100 µM (inactive)	> 100 µM (inactive)	> 100 µM (inactive)	> 100 µM (inactive)	> 100 µM (inactive)	> 100 µM (inactive)	> 100 µM (inactive)	> 100 µM (inactive)	61.2 µM (inactive)	> 100 µM (inactive)	> 100 µM (inactive)	> 100 µM (inactive)	> 10 µM (inactive)
c1ccc(SCCc2ccncc2)cc1	> 100 µM (inactive)	> 100 µM (inactive)	31.3 µM (inactive)	> 100 µM (inactive)	46 µM (inactive)	> 100 µM (inactive)	> 100 µM (inactive)	> 100 µM (inactive)	> 100 µM (inactive)	> 100 µM (inactive)	58.7 µM (inactive)	> 100 µM (inactive)	> 100 µM (inactive)	35.8 µM (inactive)	> 100 µM (inactive)	> 100 µM (inactive)	19.3 µM (inactive)	> 100 µM (inactive)	45.4 µM (inactive)
Cc1ccc(/N=N\c2c(O)c(S(=O)(=O)O)cc3cc(S(=O)(=O)O)ccc23)c(C)c1	> 100 µM (inactive)	> 100 µM (inactive)	> 100 µM (inactive)	> 100 µM (inactive)	> 100 µM (inactive)	> 100 µM (inactive)	> 100 µM (inactive)	> 100 µM (inactive)	> 100 µM (inactive)	> 100 µM (inactive)	> 100 µM (inactive)	> 100 µM (inactive)	> 100 µM (inactive)	> 100 µM (inactive)	> 100 µM (inactive)	> 100 µM (inactive)	> 100 µM (inactive)	> 100 µM (inactive)	> 100 µM (inactive)
C/C(=N\NC(=S)N/N=C(\C)c1ccccn1)c1ccccn1	2.07 µM (inactive)	1.27 µM (inactive)	0.337 µM (active)	3 µM (inactive)	1.12 µM (inactive)	1.05 µM (active)	0.575 µM (active)	4.28 µM (inactive)	2.38 µM (inactive)	0.533 µM (active)	0.381 µM (active)	0.675 µM (active)	1.27 µM (inactive)	4.61 µM (inactive)	1.31 µM (inactive)	0.345 µM (active)	2.18 µM (inactive)	4.09 µM (inactive)	0.809 µM (active)
N#Cc1nc(/C=C/c2ccccc2)oc1N	> 100 µM (inactive)	> 100 µM (inactive)	> 100 µM (inactive)	> 100 µM (inactive)	> 100 µM (inactive)	> 100 µM (inactive)	> 100 µM (inactive)	> 100 µM (inactive)	> 100 µM (inactive)	> 100 µM (inactive)	> 100 µM (inactive)	> 100 µM (inactive)	> 100 µM (inactive)	> 100 µM (inactive)	> 100 µM (inactive)	> 100 µM (inactive)	0.252 µM (active)	> 100 µM (inactive)	7.26 µM (inactive)
